“Also recorded” adds a separate entry of the source.
Assays:
[1] = Phase I Holter ECG assessment and concentration-QTcF analysis; assay type: in vivo, human; settings: for Mean ΔΔQTcF: 100 mg dose group (n=6); for Predicted mean ΔΔQTcF: linear mixed model
Procedure: Holter ECG recordings of 24 h duration were performed on Day 1 in Parts 1 and 2 of the study using digital 12-lead Holter devices (GI M12R, Manlius, N.Y.) and analyzed in the Quintiles central ECG laboratory. Ten second 12-lead ECGs were extracted in triplicate using Antares ECG extraction software (version 2.15.1.0, AMPS-LLC, New York, N.Y.) for each PK time point (predose and 0.25, 0.5, 1.0, 1.5, 2, 2.5, 3, 4, 5, 6, 8, 12, 16, 24 h postdose) within a −5 to 0 minute window prior to and a 5 minute window after each sampling time point. The quality of extracted ECG snapshots was checked by a Holter Associate/Specialist using the Anatares quality control review interface. The mean QT and RR values from the triplicate ECGs were used to calculate QTcF for each time point.
The dataset consisted of Day 1 ECG and PK data from all subjects in Parts 1 and 2 of the study.
Model derived predicted mean ΔΔQTcF was calculated for the geometric mean Cmax of each dose cohort. Two-sided 90% CIs of the estimate were determined using bootstrapping (1,000 resamples). By-time point analysis of actual values and change from baseline was performed for QTcF. Mean ΔΔQTcF with an associated 90% CI was summarized by time point for each dose cohort.

[2] = test system: human patients suffering from relapsing multiple sclerosis (RMS); experiment: Phase II RMS study: HRQoL SF-36 Physical Component Summary score; assay type: in vivo; settings: for Difference in LS means of CFB in PCS score vs placebo: week 24, MMRM
Procedure: Analysis of Primary Endpoint
Primary and secondary efficacy endpoints were analysed based on the modified intention-to-treat (mITT) analysis set, consisting of all randomized patients with at least one available baseline and one post-baseline MRI assessment. […] For each endpoint, rate ratio (RR; null-hypothesis RR=1.0) adjusted for baseline disease activity was reported together with associated 95% CI and p-value. The T2 lesion endpoint was analysed similarly. Dose-response relationships between evobrutinib treatment dose and primary and key secondary endpoints were assessed for linear and monotonic trend. The analysis of CFB in cube root of volume of T2 lesions at Week 24 was based on a mixed-effect model for repeated measures, with fixed effects for treatment, week of visit, and treatment-by-week interaction, random effect for subject, and adjustment for baseline cube root of lesion volume. CFB in SF-36 score at Week 24 was analysed similarly. Descriptive statistics were used to further describe the study outcomes.

[3] = Phase II RMS study: safety (adverse events, laboratory) over 24 weeks; assay type: in vivo
Procedure: The assessing Investigator and central MRI reader were treatment blinded.
Safety profile of the IMP was assessed through the recording, reporting and analysis of baseline medical conditions; AEs; physical examination findings including vital signs, ECGs, and laboratory tests (including Ig and subclass concentration and B, NK, and T cell counts). Comprehensive assessment of any apparent toxicity experienced by each subject was performed from the time of giving informed consent and throughout the trial. The Investigator was to report any AEs, whether observed by the Investigator or reported by the subject.
Adverse Event: An AE was any untoward medical occurrence in a subject or clinical investigation subject administered a pharmaceutical product, regardless of causal relationship with this treatment. An AE could therefore be any unfavorable and unintended sign (including an abnormal laboratory finding), symptom, or disease temporally associated with the use of a medicinal product, whether or not considered related to the medicinal product.
The Investigator was required to grade the severity or toxicity of each AE. Investigators referenced the National Cancer Institute-Common Terminology Criteria for AEs (NCI-CTCAE), Version 4.03 (publication date: 14 Jun. 2010) a descriptive terminology provided in the Manual of Procedures that can be used for AE reporting.
A general grading (severity/intensity; hereafter referred to as severity) scale was provided at the beginning of the above referenced document, and specific event grades were also provided. Only if a particular AE's severity was not specifically graded by the guidance document, then the Investigator was to use the general NCI-CTCAE definitions of Grade 1 through Grade 5 following his or her best medical judgment. The 5 general grades are: • Grade 1 or Mild • Grade 2 or Moderate • Grade 3 or Severe • Grade 4 or Life-threatening • Grade 5 or Death.
Serious Adverse Events: An SAE is any untoward medical occurrence that at any dose: • Results in death. • Is life-threatening. (Note: The term “life-threatening” refers to an event in which the subject is at risk of death at the time of the event, not an event that hypothetically might have caused death if it was more severe) • Requires inpatient hospitalization or prolongs an existing hospitalization, except in the case of hospitalizations due to protocol-defined relapses. • Results in persistent or significant disability or incapacity. • Is a congenital anomaly or birth defect. • Is otherwise considered to be medically important.

With `C=CC(=O)N1CCC(CNc2ncnc(N)c2-c2ccc(Oc3ccccc3)cc2)CC1` [Evobrutinib, 1-(4-(((6-amino-5-(4-phenoxyphenyl)pyrimidin-4-yl)amino)methyl)piperidin-1-yl)prop-2-en-1-one] the “Geometric mean Cmax” value ([1]; 25 mg dose group, Day 1, Parts 1 and 2) was 86.48 ng/mL, the “Geometric mean Cmax” value ([1]; 25 mg dose group, Day 1, Parts 1 and 2, listed as evobrutinib) was 86.5 ng/mL and the “Geometric mean Cmax” value ([1]; 50 mg dose group, Day 1) was 233.9 ng/mL. For the same compound, the “Geometric mean Cmax” value ([1]; 75 mg dose group, Day 1) was 253.9 ng/mL, the “Mean ΔΔQTcF” value ([1]; 6 h post-dose) was 7.1 ms and the “Mean ΔΔQTcF” value ([1]; 8 h post-dose) was 5.6 ms. For the same compound, the “Mean ΔΔQTcF” value ([1]; 12 h post-dose) was 7.2 ms, the “Geometric mean Cmax” value ([1]; 100 mg dose group, Day 1) was 308.6 ng/mL and the “Geometric mean Cmax” value ([1]; 200 mg dose group, Day 1, Parts 1 and 2) was 689.2 ng/mL. For the same compound, the “Geometric mean Cmax” value ([1]; 350 mg dose group, Day 1) was 845.9 ng/mL, the “Geometric mean Cmax” value ([1]; 500 mg dose group, Day 1) was 1512.3 ng/mL and the “Geometric mean Cmax” value ([1]; 500 mg dose group, Day 1, listed as evobrutinib) was 1,512 ng/ml. The “Subjects with change from baseline in QTcF between 30 ms and 60 ms” value ([1]; 2 of 81 subjects, both in the 200 mg dose group) was 2.5%, the “Change from baseline in QTcF” value ([1]; all ECGs) was no more than 60 ms and the “Mean ΔΔQTcF over the range of doses evaluated” value ([1]; all time points, with the exception of the 100 mg dose group) was less than 5 ms. The “Absolute QTcF value” ([1]; any dose group, any time point) was no more than 450 ms, the “Predicted mean ΔΔQTcF” value ([1]; at geometric mean Cmax of 25 mg dose group) was -0.78 ms and the “Predicted mean ΔΔQTcF” value ([1]; at geometric mean Cmax of 50 mg dose group) was -0.82 ms. For the same compound, the “Predicted mean ΔΔQTcF” value ([1]; at geometric mean Cmax of 75 mg dose group) was -0.82 ms, the “Predicted mean ΔΔQTcF” value ([1]; at geometric mean Cmax of 100 mg dose group) was -0.84 ms and the “Predicted mean ΔΔQTcF” value ([1]; at geometric mean Cmax of 200 mg dose group) was -0.94 ms. The “Predicted mean ΔΔQTcF” value ([1]; at geometric mean Cmax of 350 mg dose group) was -0.98 ms, the “Predicted mean ΔΔQTcF” value ([1]; at geometric mean Cmax of 500 mg dose group) was -1.16 ms and the “Change from baseline in HR, PR and QRS values post-dose” value ([1]; categorical analysis) was “no clinically significant change from baseline”. For the same compound, the “Slope of the relationship between placebo-adjusted ΔQTcF and concentration” value ([1]; linear mixed-effects model, P=0.86) was −0.00027 ms/ng per mL, the “Subjects with treatment-emergent T wave morphological abnormalities” value ([1]; one in the 50 mg and one in the 100 mg dose group) was “two” and the “Effect on QTcF / exposure-effect relationship” value ([1]; single doses up to 500 mg) was “did not prolong QTcF; also recorded: No evidence of a significant exposure-effect relationship; also recorded: no prolongation of QTcF”. For the same compound, the “Hysteresis between plasma concentration and ΔQTcF” value ([1]; statistical test based on ΔΔQTcF) was “no evidence of hysteresis”, the “Change in SF-36 PCS score from baseline to week 24, Mean ± SD” value (“Change in SF-36 PCS score … Mean ± SD” for short) ([2]; 25 mg QD) was 0.8 ± 5.93 and the “Change in SF-36 PCS score from baseline to week 24, Median” value (“Change in SF-36 PCS score … Median” for short) ([2]; 25 mg QD) was 0.3. For the same compound, the “Difference in LS means of CFB in PCS score vs placebo” value (shortened to “Difference in LS means of CFB”) ([2]; 25 mg QD) was 1.73, the “Change in SF-36 PCS score … Mean ± SD” value ([2]; 75 mg BID) was 1.1 ± 5.22 and the “Change in SF-36 PCS score … Median” value ([2]; 75 mg BID) was 1.3. For the same compound, the “Difference in LS means of CFB” value ([2]; 75 mg BID) was 1.93, the “Change in SF-36 PCS score … Mean ± SD” value ([2]; 75 mg QD) was 1.5 ± 7.09 and the “Change in SF-36 PCS score … Median” value ([2]; 75 mg QD) was 0.6. The “Difference in LS means of CFB” value ([2]; 75 mg QD) was 1.95, the “Change in SF-36 PCS score … Mean ± SD” value ([2]; 75 mg QD, listed as evobrutinib) was 1.5±7.09 and the “Deaths or additional emerging safety signals” value ([3]; 24 weeks) was “no deaths or additional emerging safety signals”. The “TEAEs of grade 4 or 5” value ([3]; human, in vivo, 24 weeks) was “no TEAEs of grade 4 or 5”, the “Hematological abnormalities, such as lymphopenia” value ([3]; in vivo) was “None of the three evobrutinib doses were associated with hematological abnormalities, such as lymphopenia” and the “Hy's Law cases among Grade 3 transaminase elevations” value ([3]; in vivo) was “no Hy's Law cases”. The “Infection rates versus placebo” value ([3]; in vivo) was “lower than those with placebo”.

Reference: patent publication US12251382B2, “Substituted amino-pyrimidine compound for use in a method for treatment and prevention of multiple sclerosis” (Merck Patent GmbH, priority 2018, dated 2025)
